Test results: paper PMC12589586, “Targeting TAZ-TEAD in minimal residual disease enhances the duration of targeted therapy in melanoma models” (Nature Communications, 2025)

What was measured:
[1] = target: T1, TEAD1 (Homo sapiens, UniProt P28347); assay: protein thermal shift assay (delta Tm); assay type: binding; parameters: FLAG-tagged hTEAD1, depalmitoylated
[2] = target: T2, TEAD4 (Mus musculus, UniProt Q62296); assay: protein thermal shift assay (delta Tm); no binding to palmitoylated TEAD4
T2 construct: FLAG-tagged mTEAD4, depalmitoylated
T2 sequence (Q62296 whole entry): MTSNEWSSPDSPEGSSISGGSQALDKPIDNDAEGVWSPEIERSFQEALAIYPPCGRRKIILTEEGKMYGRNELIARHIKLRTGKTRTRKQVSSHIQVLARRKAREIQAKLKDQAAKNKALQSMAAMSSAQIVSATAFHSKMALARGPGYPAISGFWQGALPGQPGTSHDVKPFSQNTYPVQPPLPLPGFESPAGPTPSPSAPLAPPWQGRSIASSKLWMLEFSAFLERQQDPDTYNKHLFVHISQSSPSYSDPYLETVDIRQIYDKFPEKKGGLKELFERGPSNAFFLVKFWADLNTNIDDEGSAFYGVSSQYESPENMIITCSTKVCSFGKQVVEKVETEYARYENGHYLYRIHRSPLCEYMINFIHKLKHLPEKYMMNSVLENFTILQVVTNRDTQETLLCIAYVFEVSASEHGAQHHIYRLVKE

[3] = target: T1, TEAD1; assay: co-crystal structure ([…] Å); also protein thermal shift; assay type: binding; parameters: FLAG-tagged hTEAD1, depalmitoylated (thermal shift)

T1 sequence (P28347 whole entry): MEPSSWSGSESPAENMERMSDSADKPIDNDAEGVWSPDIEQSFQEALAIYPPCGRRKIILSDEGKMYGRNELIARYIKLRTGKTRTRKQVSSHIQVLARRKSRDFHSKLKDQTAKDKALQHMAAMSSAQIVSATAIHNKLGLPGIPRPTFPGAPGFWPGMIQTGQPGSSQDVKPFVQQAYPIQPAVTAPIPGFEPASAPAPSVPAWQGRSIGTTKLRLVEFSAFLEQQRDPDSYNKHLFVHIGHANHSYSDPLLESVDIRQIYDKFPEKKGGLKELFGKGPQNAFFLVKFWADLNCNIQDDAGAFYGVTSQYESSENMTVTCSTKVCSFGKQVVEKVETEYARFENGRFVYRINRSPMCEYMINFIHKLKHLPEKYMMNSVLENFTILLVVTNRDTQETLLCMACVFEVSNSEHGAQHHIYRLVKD

SMILES	protein thermal shift assay (delta Tm) [1]	protein thermal shift assay (delta Tm); no binding to palmitoylated TEAD4 [2]	co-crystal structure (2.03 Å); also protein thermal shift [3]
C=CC(=O)N1CCc2ccc(Oc3ccc(C(F)(F)F)cc3)cc2C1 [OPN-9643, 1-(7-(4-(trifluoromethyl)phenoxy)-3,4-dihydroisoquinolin-2(1H)-yl)prop-2-en-1-one]	protein thermal shift analysis and confirmed the binding of both compounds to depalmitoylated TEAD1 and TEAD4 proteins	Incubation of these compounds with depalmitoylated TEAD4 resulted in significant Tm shifts, indicating binding and stabilization of target proteins	
C=CC(=O)N1CCc2ccc(Oc3ccc(C(F)(F)F)c(F)c3)cc2C1 [OPN-9652, 1-(7-(3-fluoro-4-(trifluoromethyl)phenoxy)-3,4-dihydroisoquinolin-2(1H)-yl)prop-2-en-1-one]		Incubation of these compounds with depalmitoylated TEAD4 resulted in significant Tm shifts, indicating binding and stabilization of target proteins	OPN-9652 occupies the central palmitate-binding pocket and covalently modifies Cys359
